According to ChEMBL document CHEMBL5537189 (J Med Chem, 2024):

Legend:
[1] = molecular target: T1, Retinoic acid receptor RXR-gamma (Homo sapiens, UniProt P48443)
T1 sequence (P48443 whole entry): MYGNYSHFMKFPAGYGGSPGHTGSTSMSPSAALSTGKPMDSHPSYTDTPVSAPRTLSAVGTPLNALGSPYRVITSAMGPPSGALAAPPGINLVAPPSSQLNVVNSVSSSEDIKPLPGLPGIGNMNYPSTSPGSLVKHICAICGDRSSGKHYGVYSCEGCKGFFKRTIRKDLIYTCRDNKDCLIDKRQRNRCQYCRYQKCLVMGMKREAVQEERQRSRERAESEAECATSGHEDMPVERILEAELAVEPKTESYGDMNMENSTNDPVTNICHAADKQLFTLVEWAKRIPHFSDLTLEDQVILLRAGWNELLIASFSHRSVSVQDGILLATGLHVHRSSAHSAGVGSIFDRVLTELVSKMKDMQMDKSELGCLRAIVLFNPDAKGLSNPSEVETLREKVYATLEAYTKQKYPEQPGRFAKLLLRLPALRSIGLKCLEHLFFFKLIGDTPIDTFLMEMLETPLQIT

[2] = molecular target: T2, Retinoic acid receptor RXR-alpha (Homo sapiens, UniProt P19793)
T2 sequence (P19793 whole entry): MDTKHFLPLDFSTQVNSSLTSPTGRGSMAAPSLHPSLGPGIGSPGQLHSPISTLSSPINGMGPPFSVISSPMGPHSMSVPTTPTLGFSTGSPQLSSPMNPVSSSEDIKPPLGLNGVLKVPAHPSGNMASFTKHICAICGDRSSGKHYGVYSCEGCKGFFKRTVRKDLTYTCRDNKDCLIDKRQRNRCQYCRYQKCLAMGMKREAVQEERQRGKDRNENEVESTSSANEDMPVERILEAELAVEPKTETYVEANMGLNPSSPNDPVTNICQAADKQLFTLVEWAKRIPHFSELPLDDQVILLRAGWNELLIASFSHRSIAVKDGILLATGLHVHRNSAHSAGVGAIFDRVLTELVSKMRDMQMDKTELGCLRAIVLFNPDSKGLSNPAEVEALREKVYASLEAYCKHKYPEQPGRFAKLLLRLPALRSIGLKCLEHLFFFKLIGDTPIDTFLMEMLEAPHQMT

[3] = molecular target: T3, Retinoic acid receptor RXR-beta (Homo sapiens, UniProt P28702); experiment: Partial agonist activity at full length human RXR beta transfected in HEK293T cells assessed as DR1 activation incubated for 16 hrs by Dual-glo luciferase assay; type: cell-based
T3 sequence (P28702 whole entry): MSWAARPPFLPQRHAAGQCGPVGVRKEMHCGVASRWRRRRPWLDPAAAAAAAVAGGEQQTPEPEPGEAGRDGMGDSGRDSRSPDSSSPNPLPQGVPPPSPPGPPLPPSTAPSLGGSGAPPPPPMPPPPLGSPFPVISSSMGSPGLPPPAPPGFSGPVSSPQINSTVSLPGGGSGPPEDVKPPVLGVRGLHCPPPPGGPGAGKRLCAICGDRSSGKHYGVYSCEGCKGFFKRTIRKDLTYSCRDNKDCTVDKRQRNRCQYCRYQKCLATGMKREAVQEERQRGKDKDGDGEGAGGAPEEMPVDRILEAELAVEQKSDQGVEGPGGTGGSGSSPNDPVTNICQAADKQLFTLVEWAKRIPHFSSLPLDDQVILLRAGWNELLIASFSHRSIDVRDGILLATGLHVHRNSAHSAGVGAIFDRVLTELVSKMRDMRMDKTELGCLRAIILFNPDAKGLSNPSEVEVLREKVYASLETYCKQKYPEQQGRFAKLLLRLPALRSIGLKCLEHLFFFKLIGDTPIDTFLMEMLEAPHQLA

[4] = molecular target: T3, Retinoic acid receptor RXR-beta
Description: Partial agonist activity at recombinant human RXR beta LBD (298 to 533 residues) expressed in Escherichia coli Rosetta incubated for 16 hrs by Gal4-hybrid reporter gene based Dual-glo luciferase assay

| EC50 [1] [nM] | EC50 [2] [nM] | EC50 [3] | EC50 [4] [nM] | SMILES |
| --- | --- | --- | --- | --- |
| 14000 | 3200 |  |  | CN(c1cc(Cl)nc(OCCC(=O)O)n1)c1cccc(Cl)c1Cl |
|  | 38 |  |  | Cc1ccc2c(c1)N(c1cc(Cl)nc(OCCC(=O)O)n1)CCC2 |
| 31000 | 4200 |  |  | CN(c1ccccc1)c1cc(Cl)nc(OCCC(=O)O)n1 |
|  | 150 |  |  | CN(c1cc(C(F)(F)F)cc(C(F)(F)F)c1)c1cc(Cl)nc(OCCC(=O)O)n1 |
|  |  | Not Active |  | CC1CCc2ccccc2N1c1cc(Cl)nc(OCCC(=O)O)n1 (stereo unspecified) |
| 140 | 19 |  |  | O=C(O)CCOc1nc(Cl)cc(N2CCCc3ccc(Cl)cc32)n1 |
| 2600 | 400 |  |  | Cc1cccc(N(C)c2cc(Cl)nc(OCCC(=O)O)n2)c1 |
| 2700 |  |  |  | CN(c1cccc(C(F)(F)F)c1)c1cc(Cl)nc(OCCC(=O)O)n1 |
| 220 | 29 |  | 34 | CC1Cc2ccccc2N(c2cc(Cl)nc(OCCC(=O)O)n2)C1 (stereo unspecified) |
| 6000 |  |  |  | CN(c1ccc(Cl)c(Cl)c1)c1cc(Cl)nc(OCCC(=O)O)n1 |
| 1800 |  |  |  | CN(c1cccc(Br)c1)c1cc(Cl)nc(OCCC(=O)O)n1 |
| 680 | 110 |  |  | O=C(O)CCOc1nc(Cl)cc(N2CCCc3ccccc32)n1 |
| 60 | 40 |  | 34 | Cc1ccc2c(c1)N(c1cc(Cl)nc(OCCC(=O)O)n1)CCC2C (stereo unspecified) |
| 50 | 7 |  | 100 | CC1CCN(c2cc(Cl)nc(OCCC(=O)O)n2)c2ccccc21 (stereo unspecified) |
| 2400 | 560 |  |  | CN(c1cccc(Cl)c1)c1cc(Cl)nc(OCCC(=O)O)n1 |
| 100 |  |  |  | CC1CCN(c2cc(Cl)nc(OCCC(=O)O)n2)c2cc(Cl)ccc21 (stereo unspecified) |
| 1200 |  |  |  | CN(c1cc(Cl)nc(OCCC(=O)O)n1)c1cccc2c1CCC2 |
|  | 260 |  |  | CN(c1cc(Cl)cc(Cl)c1)c1cc(Cl)nc(OCCC(=O)O)n1 |
| 480 | 90 |  |  | Cc1cccc2c1CCCN2c1cc(Cl)nc(OCCC(=O)O)n1 |
| 160 |  |  |  | Cc1cc(C)cc(N(C)c2cc(Cl)nc(OCCC(=O)O)n2)c1 |
| 40 |  |  |  | Cc1cc(C)c2c(c1)N(c1cc(Cl)nc(OCCC(=O)O)n1)CCC2 |
| 11 | 9 |  |  | CC1(C)CCN(c2cc(Cl)nc(OCCC(=O)O)n2)c2ccccc21 |
